One assay concerns the target T1, hSR Y121A (Homo sapiens, UniProt Q9GZT4, C2D/C6D/Y121A).
T1 construct: (His)6 (C); made in house; host or cells: E. coli BL21-CodonPlus (DE3)-RIL
T1 sequence (Q9GZT4 1-340 C2D/C6D/Y121A): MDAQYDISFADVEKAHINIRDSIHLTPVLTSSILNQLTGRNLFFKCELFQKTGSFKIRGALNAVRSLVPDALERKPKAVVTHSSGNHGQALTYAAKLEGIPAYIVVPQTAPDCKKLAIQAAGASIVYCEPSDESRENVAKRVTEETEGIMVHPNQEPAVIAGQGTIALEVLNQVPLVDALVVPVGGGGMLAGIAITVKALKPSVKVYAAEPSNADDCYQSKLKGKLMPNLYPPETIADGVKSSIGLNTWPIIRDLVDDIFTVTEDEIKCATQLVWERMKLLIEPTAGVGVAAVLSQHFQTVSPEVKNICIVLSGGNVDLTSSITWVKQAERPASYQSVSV
Nature of the assay: L- to D-Ser racemisation coupled luminescence assay, Y121A mutant. The settings on record: 1 mM ATP, 2 mM L-serine, 16.7% DMSO, ~ = extrapolated. The class given is biochemical. The method, then:
(§1) The ability of compounds to inhibit the L to D-Ser racemisation activity of hSR was measured in a coupled assay. In the assay, hSR converts L-Ser to D-Ser. The D-Ser is then converted into pyruvate, ammonia and hydrogen peroxide using D-amino acid oxidase. Next, the hydrogen peroxide reacts with luminol in the presence of horseradish peroxidase, producing luminescent by-product. In the assay malonate was used as a control compound and gave 100% inhibition – results for XChem compounds are shown in Supplementary Table 4 and in supplementary Fig. 12. The activity of the wild-type and the three Y121 mutants, Y121F, Y121A and Y121G was measured at six ATP concentrations (1 mM, 0.5 mM, 0.25 mM, 0.125 mM, 0.062 mM and 0.031 mM) as shown in supplementary Fig. 11.
(§2) The inhibition of hSR activity was measured using a luminescence assay in a 384 well plate (flat bottom white, Corning). Initially, each well contained 100 mM Tris pH 8.5, 0.05% Pluronic f-127 (VWR), 1 mM MgCl2, 1 mM ATP (disodium salt, Fisher), 10 µM PLP, 0.3 nM hSR, 2 mM L-serine and compound at 16.67 mM to 0.0077 mM (see supplementary Fig. 12) and had 16.7% DMSO concentration. The plate was incubated at RT with shaking for 30 min. After this, the reaction was stopped using a detection mix. The final well concentration was 100 mM Tris pH 8.5, 0.05% Pluronic f-127 (VWR), 1 mM EDTA (Fisher), 0.25 U/mL horseradish peroxidase, 0.5 U/mL D-amino acid oxidase and 25 µM Luminol (Insight Biotechnology) and 8.4% DMSO. The plate was left to incubate covered and shaking for 10 min. The plate was then read using a PHERAstar (BMG) plate reader. For the ATP dependant activity data, the method was kept the same, except for varying the concentration of ATP.
(§3) The relative light units read (x) on the PHERAstar were converted into percentage inhibition (PI) using the equation: PI=100x[1−(x−Min)/(Max−Min)] where min is negative control (100% inhibition) and max is the positive control (no inhibition). The IC50s were calculated with GraphPad (Prism 8.3.1, Graphpad Software, San Diego CA).

In the next assay the target is T2, hSR Tyr 121 pocket (Homo sapiens, UniProt Q9GZT4, C2D/C6D).
T2 construct: (His)6 (C); made in house; host or cells: E. coli (BL21-CodonPlus (DE3)-RIL for the mutants; the wild type is only 'as described[33]')
T2 sequence (Q9GZT4 1-340 C2D/C6D): T1 sequence (Q9GZT4 1-340 C2D/C6D/Y121A) with A121Y
Nature of the assay: XChem crystallographic fragment screen. The class given is binding. On the set-up: key: A = best; D = worst. The settings on record: crystals soaked with 150 mM fragment. The method, then: A crystallographic fragment screen was performed on holo crystals using the XChem screening strategy at Diamond Light Source[58]. For the XChem experiments, holo crystals were generated at 20 °C in 96-well Swissci 3-drop, sitting drop plates (Molecular Dimensions) using 14 mg/mL SR plus fresh 5 mM DTT dispensed in a 3:2 ratio (300 nL protein + 200 nL reservoir) equilibrated against 20 μL reservoir containing 100 mM MES pH 6.2, 100 mM Calcium chloride, 5% ethylene glycol and 20% PEG Smear Broad (Molecular Dimensions). This crystallisation condition differs from that reported in a recent crystal structure of holo SR (6SLH) which was crystallised against reservoir/precipitate of 100 mM Bis-Tris pH 6.5, 15% PEG 3350, 250 mM MgCl2[33]. ATP was present in the protein delivery buffer at 1.25-fold times the protein subunit concentration.
Crystal soaking, harvesting, mounting, and data collections were performed at the Diamond Light Source XChem facilities and beamline I04-1 through the XChem workflow[50],[59]. […] The full compound screen was performed on 600 crystals which were each soaked with 150 mM fragment compound (30% v/v of 500 mM stocks in DMSO) for ≥1.5 h before crystals were harvested and mounted on the fast microscope crystal mounting system. The fragments screened were obtained from the Diamond-SGC-iNext Poised (DSiP) XChem library.
The structure of the representative XChem holo crystal (20% DMSO soak, no fragment) presented in this paper (6ZUJ) was solved by rigid body refinement based on a previous structure (6SLH)[33] and refined with phenix.refine[71] and REFMAC5[68],[72] and modelled in coot[69]. Initial analysis of approx. 600 ligand-soaked crystals was carried out using XChemExplorer[59] a data-management and workflow tool to support large-scale simultaneous analysis of protein–ligand complexes during structure-based ligand discovery. The workflow flagged 95 structures with binding events, 44 of which were classified as interesting, spanning four distinct binding sites. Five SR structures from the XChem screen are described in this paper that are representative examples of the four major binding sites. One compound, 2-x0406, occupied not just one of the four major binding sites, but also occupied a second site adjacent to the tyrosine 121 pocket.

Assay [1] addresses T3, human serine racemase (hSR) WT (Homo sapiens, UniProt Q9GZT4, C2D/C6D).
T3 construct: (His)6 (C); made in house; host or cells: E. coli (BL21-CodonPlus (DE3)-RIL for the mutants; the wild type is only 'as described[33]')
T3 sequence (Q9GZT4 1-340 C2D/C6D): T1 sequence (Q9GZT4 1-340 C2D/C6D/Y121A) with A121Y
Nature of the assay: L- to D-Ser racemisation coupled luminescence assay, wild-type hSR. The class given is biochemical. The settings on record: for IC50: wild-type hSR, 1 mM ATP, 2 mM L-serine, 16.7% DMSO, ~ = extrapolated with artificial 100% point at 1 M; for inhibition of SR, in words: assay data for compounds observed to displace Tyr 121; for inhibition at 16700 µM: maximum compound concentration 16.7mM, read-out: inhibition at maximum concentration used in assay. As for the experimental part: as §1, §2, §3

The target of a further assay is T4, hSR Y121G (Homo sapiens, UniProt Q9GZT4, C2D/C6D/Y121G).
T4 construct: (His)6 (C); made in house; host or cells: E. coli BL21-CodonPlus (DE3)-RIL
T4 sequence (Q9GZT4 1-340 C2D/C6D/Y121G): T1 sequence (Q9GZT4 1-340 C2D/C6D/Y121A) with A121G
Nature of the assay: L- to D-Ser racemisation coupled luminescence assay, Y121G mutant. The class given is biochemical. The settings on record: 1 mM ATP, 2 mM L-serine, 16.7% DMSO, ~ = extrapolated. As for the experimental part:
as §1, §2, §3

A further assay concerns the target T5, hSR Y121F (Homo sapiens, UniProt Q9GZT4, C2D/C6D/Y121F).
T5 construct: (His)6 (C); made in house; host or cells: E. coli BL21-CodonPlus (DE3)-RIL
T5 sequence (Q9GZT4 1-340 C2D/C6D/Y121F): T1 sequence (Q9GZT4 1-340 C2D/C6D/Y121A) with A121F
Nature of the assay: L- to D-Ser racemisation coupled luminescence assay, Y121F mutant. The settings on record: 1 mM ATP, 2 mM L-serine, 16.7% DMSO, ~ = extrapolated. The class given is biochemical. As for the experimental part:
as §1, §2, §3

For the next assay, the system named is rat brain SR. Also on record: method as in PMID 30918891, PMID 12021263. The settings on record: cited from earlier work.
Assay [2] deals with SR. On the set-up: method as in supplementary refs 2, 11-32. The settings on record: literature summary; ref supplementary refs 2, 11-32; cited from earlier work.
In assay [3] the target is SR. The settings on record: cited from earlier work; for Ki: review of SR inhibitors.
For assay [4], the system named is slime mould (D. discoideum) SR. On the set-up: method as in ref 56 (a number printed in a supplementary file, which may have a reference list of its own: not looked up in the article's list). The settings on record: ref 56; cited from earlier work.

Positions count from the first letter of the chain named. Where two headings read alike, the source gives them in different places.

Take `CC(=O)NCCc1ccccc1C` [1-x0495]: the IC50 – broadly, the concentration that inhibits the measured activity by half – is ~23.6 mM at hSR Y121A and ~19.5 mM in [1]. Further, at hSR Tyr 121 pocket, the “Initial rank from examination of XChem electron density/fit” value is listed as “A”. Besides, the inhibition at 10000 µM in assay [1] (10mM, value of the originally submitted manuscript, quoted in peer review file) was 102%.
Take `O=C(NCc1nc2ccccc2[nH]1)c1ccco1` [2-x0406]: the 50% inhibitory concentration (IC50) is ~8.4 mM at hSR Y121A, ~3.7 mM in [1], ~7.4 mM on hSR Y121G and ~7.8 mM on hSR Y121F.
Regarding `Nc1ccccc1N1CCOCC1` [3-x0458], the 50% inhibitory concentration (IC50) on hSR Y121A is 0.0094 mM; in assay [1], 0.0106 mM; at hSR Y121G, 0.0234 mM; at hSR Y121F, 0.0123 mM. The “inhibition of SR, in words” value in [1] is “reasonably potent inhibitors”. For the same compound, the inhibition at 16700 µM in [1] is 100%.
On to `CC(=O)NC1CNc2ccccc2C1` (centres unmarked) [4-x0482], for which the half-inhibitory concentration (IC50) was 0.0033 mM on hSR Y121A, 0.0051 mM in assay [1], 0.0044 mM at hSR Y121G and 0.0032 mM at hSR Y121F. Further, the “inhibition of SR, in words” value in [1] is “reasonably potent inhibitors”. For the same compound, the inhibition at 16700 µM in assay [1] was found to be 100%.
Take `NC(=O)c1cnc(C(F)(F)F)nc1` [5-x0501]: the “Initial rank from examination of XChem electron density/fit” value on hSR Tyr 121 pocket is on record as “D”.
The same measure, in the same setting: the result for `CNCC1COc2ccccc2O1` (centres unmarked) [6-x0513] reads “A”.
Take `O=C(CCCc1ccccc1)N1CCOCC1` [7-x0109]: the IC50 at hSR Y121A is ~22.3 mM; in [1] it was ~12.5 mM; at hSR Y121G it was ~26 mM; at hSR Y121F it was ~20.7 mM.
As for `CCCc1nnc(NC(=O)c2ccccn2)s1` [8-x0127], the “Initial rank from examination of XChem electron density/fit” value on hSR Tyr 121 pocket is on record as “D”.
On the same count and under the same terms, the result for `Cn1nccc1C(=O)NCc1cccs1` [9-x0154] reads “D”; that for `CC(CS(N)(=O)=O)c1ccccc1` (centres unmarked) [10-x0302], “D”.
Consider `NCc1cc(-c2ccccc2)no1` [12-x0437], for which the IC50 at hSR Y121A was ~37.6 mM; in [1], ~25.3 mM; at hSR Y121G, ~26.3 mM; on hSR Y121F, ~29.9 mM. The “Initial rank from examination of XChem electron density/fit” value at hSR Tyr 121 pocket is “D”.
In the case of `OCc1ccc(-n2cnc3ccccc32)cc1` [14-x0478], the values for the IC50 (on hSR Y121A; in [1]; at hSR Y121F) were ~7.85 mM, ~6.9 mM and ~7.4 mM, respectively.
`CS(=O)(=O)Cc1nc2ccccc2[nH]1` [15-x0306]: the IC50 was ~16.1 mM on hSR Y121A and ~12.8 mM in [1].
Regarding `[Ca+2]` [Ca^2+], the “SR activity in the presence of the ion” value in the assay on rat brain SR (1 mM ion) is listed as 134%.
As to `N[C@@H](CC(=O)NO)C(=O)O` [L-aspartic acid β-hydroxamate], in the assay with SR [2], the Inhibition mode result was “Competitive”. On SR [3], the Ki – broadly, a measure of affinity in units of concentration, obtained from inhibition or displacement – was < 0.1 mM.
As for `N[C@H](C(=O)O)[C@H](O)C(=O)O` [L-erythro-3-hydroxy-aspartate], the Inhibition mode entry in the assay on SR [2] is “Competitive”. Further, the inhibition constant Ki on SR [3] was < 0.1 mM.
Consider `Nc1ncnc2c1ncn2[C@@H]1O[C@H](COP(=O)(O)OP(=O)([O-])OP(=O)([O-])O)[C@@H](O)[C@H]1O.[Mg+2]` [Mg-ATP], for which, in assay [4], the increase of elimination is 6 fold and the increase of racemisation is 2.5 fold.
Consider `[Mg+2]` [Mg^2+], for which the “SR activity in the presence of the ion” value in the assay on rat brain SR (10 μM ion) is 112%.
Turning to `[Mn+2]` [Mn^2+], in the assay with rat brain SR (10 μM ion), the “SR activity in the presence of the ion” value is recorded as 153%.
For madecassoside, the Inhibition mode result in the assay with SR [2] is listed as “Competitive”. In addition, in the assay with SR [3] (ref 49), the IC50 was 0.026 mM.
